# Test results reported in publication PMC9305975 (Journal of the American Chemical Society, 2022).
# Molecular target: VcRibB (RibB, 3,4-dihydroxy-2-butanone 4-phosphate synthase) (Vibrio cholerae, UniProt Q9KKP2)
# Details: two Mn2+ in the active site; non-substrate analogue
# VcRibB (RibB, 3,4-dihydroxy-2-butanone 4-phosphate synthase), sequence (Q9KKP2 whole entry): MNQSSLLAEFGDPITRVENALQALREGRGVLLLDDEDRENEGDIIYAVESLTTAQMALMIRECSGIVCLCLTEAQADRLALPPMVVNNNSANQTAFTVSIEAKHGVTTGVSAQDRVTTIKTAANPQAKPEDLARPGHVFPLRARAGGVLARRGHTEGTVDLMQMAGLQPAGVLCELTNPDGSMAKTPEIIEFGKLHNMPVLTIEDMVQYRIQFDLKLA
smiles,measurement,value
O=C(CO)[C@H](O)[C@@H](O)COP(=O)(O)O [L-xylulose 5-phosphate],X-ray crystal structure; EPR,"L-xylulose 5-phosphate (L-Xy5P), showing two manganese ions and a significantly different, more twisted binding"
